Entries after “also recorded” stand apart in the source; their conditions may differ.
Legend:
Format in all cases: in vivo, human
[1] = tested on: asymptomatic Stargardt disease patients; test: TEASE-3 photoreceptor loss (ellipsoid zone band loss) by optical coherence tomography
Method: FIG. 5 is a graph showing retinal photoreceptor loss over time in three asymptomatic Stargardt disease patients taking gildeuretinol acetate 14 mg daily. Lines are piecewise linear regressions with a knot time of 6 months and show the mean area of retinal photoreceptor loss of both eyes. Each symbol represents the area of photoreceptor loss for one eye. To measure photoreceptor loss, the ellipsoid zone layer was evaluated on b-scans acquired on Heidelberg engineering optical coherence tomography (Heidelberg, Germany).
(§1) The tolerability and effects of ALK-001 (gildeuretinol acetate) in Stargardt Disease (Clinical trial group 3, also known as TEASE-3) study was an open-label, multicenter, case control study designed to evaluate the efficacy and safety of gildeuretinol acetate on the progression of Stargardt disease in asymptomatic individuals. The trial was conducted at multiple sites in the United States.
Patients received gildeuretinol acetate 14 mg capsules, to be taken orally once daily. Trial visits occurred every 6 months approximately following screening and treatment start visits.
(§2) Disease progression was monitored by best-corrected visual acuity (BCVA) reported in number of Early Treatment Diabetic Retinopathy Study (ETDRS) letters, fundus autofluorescence (FAF) imaging, loss of photoreceptors (as measured by the ellipsoid zone band loss) by optical coherence tomography (OCT) and retinal sensitivity by microperimetry.
Measurements from the left and right eye for each patient were averaged for each visit to produce a single statistical unit for both eyes. For segmented linear regressions, knot times were selected so that three visits were included in the first segment.

[2] = tested on: atrophic retinal lesions in Stargardt disease patients; test: TEASE-1 growth rate of atrophic retinal lesions by fundus autofluorescence imaging; parameters: relative slower growth rate of atrophic retinal lesions versus control / Percentage Slowing of Atrophic Retinal Lesion Growth Rate: concentration or dose not given beside the values
Method: The Tolerability and Effects of gildeuretinol acetate in Stargardt Disease (Clinical trial group 1, also known as TEASE-1) was a 24-month, multicenter, double-masked, placebo-controlled trial designed to evaluate the efficacy and safety of daily oral gildeuretinol acetate in slowing the growth of atrophic retinal lesions in Stargardt disease patients. The trial was conducted at multiple sites in the United States (NCT02402660).
Patients 12 years or older, clinically diagnosed with Stargardt disease, with at least one ABCA4 mutation, at least one eye presenting with well-demarcated areas of reduced fundus autofluorescence including retinal atrophic lesions, and with any visual acuity, were enrolled.
Patients were randomized to gildeuretinol acetate 14 mg capsules, gildeuretinol acetate 24 mg capsules, or placebo capsules, to be taken once daily for one year. After one year, 50% of randomly selected patients receiving placebo were crossed over in a 1:1 ratio to gildeuretinol acetate 14 mg capsules or gildeuretinol acetate 24 mg capsules for a second year.
Deidentified retinal images of patients not enrolled in the trial were included as a natural history cohort. This natural history cohort comprised patients diagnosed with Stargardt disease of any age, with two or more longitudinal fundus autofluorescence images taken at least four months apart over a maximum period of 2.5 years.
[…] retinal imaging comparing gildeuretinol acetate versus the untreated arm ([…]). Only well-delineated and homogeneous retinal atrophic lesions ≥0.2 mm^2 with a summed area ≥0.5 mm^2 were included in the primary analysis.
The primary endpoint analysis used a linear mixed-effect model (LMEM) with repeated measures, conferring a higher power to detect smaller effects. All observed data, including both eyes, were utilized. Treatment duration was computed as a continuous measure for each visit based on years since randomization. Adjustments for baseline retinal atrophy used the baseline atrophic retinal lesion size as a fixed effect in the LMEM. Additional fixed effects included treatment arm, treatment duration, and interaction between the treatment arm and treatment duration. Random effects included patient, eye, grader to adjust for correlation between eyes within a patient, graders' assessment of an eye, and observations of the same eye over time. A random effect slope term was added to the effect of treatment duration. Patients who crossed over to gildeuretinol acetate after year one were included in the untreated arm from baseline to year one, then in the gildeuretinol acetate arm from […] upon crossing over to gildeuretinol acetate. The full analysis set (FAS) comprised all randomized patients who received at least one dose of the study drug.
[…] All available data between 0 and 24 months was used to compute the slope of each segment. The primary efficacy endpoint was the slope of the second segment. No constraints were imposed on the Y-intercept. All growth rates were calculated on a per-year basis.
No imputations were made for missing data because the LMEM yields valid inferences under the assumption of a missing-at-random mechanism. The two-sided P-value of the primary efficacy endpoint was calculated using Kenward-Roger's method for handling denominator degrees of freedom and small samples. The goodness of fit of the linear mixed-effect model was provided as R-squared (R^2). Analyses were conducted in R (R Core Team, 2020). Prespecified, unadjusted sensitivity analyses of the primary efficacy endpoint included growth rates of untransformed areas of retinal atrophy and growth rates using a single-slope from baseline until the last available visit. Post-hoc unadjusted analyses were performed to evaluate the potential contribution of patient characteristics.

TEASE-3 safety = settings: three patients, 14 mg daily
Method: The tolerability and effects of ALK-001 (gildeuretinol acetate) in Stargardt Disease (Clinical trial group 3, also known as TEASE-3) study was an open-label, multicenter, case control study designed to evaluate the efficacy and safety of gildeuretinol acetate on the progression of Stargardt disease in asymptomatic individuals. The trial was conducted at multiple sites in the United States. Patients received gildeuretinol acetate 14 mg capsules, to be taken orally once daily. Trial visits occurred every 6 months approximately following screening and treatment start visits. Ocular safety was assessed by retinal imaging and ocular exam, which included evaluation of the anterior and posterior segments and the lens. Systemic safety was assessed by physical exam, comprehensive clinical labs (biochemistry, hematology, lipids), and 12-lead ECG.

[3] = tested on: asymptomatic Stargardt disease patients; test: TEASE-3 retinal sensitivity by fundus-tracking microperimetry
Method: FIG. 4 is a graph showing mean retinal sensitivity (dB) over time in three asymptomatic Stargardt disease patients taking gildeuretinol acetate 14 mg daily. Lines show mean retinal sensitivity of both eyes. Lines are piecewise linear regressions with a knot time of 12 months. Each symbol represents a retinal sensitivity measurement for each eye. Patient 1 retinal sensitivity was measured with a Nidek MP-1 (Nidek, Gamagori, Japan). Patients 2 and 3 retinal sensitivity was measured with the Center Vue Macular Integrity Assessment or MAIA (CenterVue, Padova, Italy).
as §1
Patients received gildeuretinol acetate 14 mg capsules, to be taken orally once daily. […]
as §2, with “microperimetry. […]” for “microperimetry.”

[2H]C([2H])([2H])C(/C=C/C=C(C)/C=C/C1=C(C)CCCC1(C)C)=C\COC(C)=O [gildeuretinol acetate]
progression of photoreceptor loss ([1]; first six months of treatment, average of two treated patients): approximately 0.18 mm^2/year
photoreceptor loss trend ([1]; following years of treatment): trended toward an improvement
photoreceptor loss, third patient ([1]; full treatment period): no photoreceptors were lost
average area of photoreceptor loss ([1]; in vivo): 0.36±0.32 mm^2
average area of photoreceptor loss as share of the foveal area ([1]; in vivo): 20%
growth rate of atrophic retinal lesions (square root area) ([2]; 14 to 24 mg daily, slope 6 to 24 months, 34 patients): 0.19 mm/year
relative slower growth rate of atrophic retinal lesions versus control ([2]; P<0.001, R^2=0.9996): 21%
difference in growth rate of atrophic retinal lesions versus control ([2]; control 0.24 mm/year (placebo + natural history), 95% CI 0.03 to 0.07): 0.05 mm/year
prespecified primary efficacy endpoint (mean growth rate of atrophic retinal lesions vs placebo and natural history) ([2]; in vivo): met its prespecified primary efficacy endpoint
effect on expansion of retinal atrophic lesions / retinal degeneration ([2]; symptomatic Stargardt disease patients, once daily up to 24 months): slowed the expansion of retinal atrophic lesions; also recorded: slows retinal degeneration
adverse reactions linked to excessive or insufficient vitamin A (delays in dark adaptation, night blindness) (TEASE-3 safety): None of the three Stargardt disease asymptomatic patients exhibited adverse reactions
change of mean retinal sensitivity ([3]; first year of treatment): −3.1±1.5 dB/year
average rate of retinal sensitivity improvement ([3]; following years of treatment): +0.93±0.7 dB/year

From patent US20260256728A1, “TREATMENT FOR ASYMPTOMATIC STARGARDT DISEASE PATIENTS” (priority 2024, published 2026)
